Source: patent publication US9346761B2, “Arginine methyltransferase inhibitors and uses thereof” (Epizyme, Inc., priority 2013, dated 2016)

How the values were obtained:
[1] = molecular target: T1, Full-length human PRMT1 isoform 1 (Homo sapiens, UniProt Q99873); assay: PRMT1 biochemical assay (3H-SAM Flashplate, peptide substrate)
T1 construct: GST-tagged PRMT1; made in house; host or cells: High Five insect cells (baculovirus, pFastBacI)
Text: (§1) General Materials. S-adenosylmethionine (SAM), S-adenosylhomocysteine (SAH), bicine, Tween20, dimethylsulfoxide (DMSO), bovine skin gelatin (BSG), and Tris(2-carboxyethyl)phosphine hydrochloride solution (TCEP) were purchased from Sigma-Aldrich at the highest level of purity possible. ^3H-SAM was purchase from American Radiolabeled Chemicals with a specific activity of 80 Ci/mmol. 384-well streptavidin Flashplates were purchased from PerkinElmer.
Protein Expression. Recombinant baculovirus were generated according to Bac-to-Bac kit instructions (Life Technologies). […] Infections were carried out at 27° C. for 48 hours, harvested by centrifugation, and stored at −80° C. for purification.
Protein Purification. […] GST-tagged PRMT1 was eluted with 50 mM Tris, 2 mM glutathione, pH 7.8, dialysed in buffer A and concentrated to 1 mg/mL.
(§2) General Procedure for PRMT1 Enzyme Assays on Peptide Substrates. The assays were all performed in a buffer consisting of 20 mM Bicine (pH=7.6), 1 mM TCEP, 0.005% BSG, and 0.002% Tween 20, prepared on the day of use. […] DMSO (1 ul) was added to Columns 11, 12, 23, 24, rows A-H for the maximum signal control and 1 ul of SAH, a known product and inhibitor of PRMT1, was added to columns 11, 12, 23, 24, rows I-P for the minimum signal control. A cocktail (40 ul) containing the PRMT1 enzyme was added by Multidrop Combi (Thermo-Fisher). The compounds were allowed to incubate with PRMT1 for 30 min at room temperature, then a cocktail (10 ul) containing SAM and peptide was added to initiate the reaction (final volume=51 ul). […] The assays were stopped by the addition of non-radiolabeled SAM (10 ul) to a final concentration of 300 uM, which dilutes the ^3H-SAM to a level where its incorporation into the peptide substrate is no longer detectable. 50 ul of the reaction in the 384-well polypropylene plate was then transferred to a 384-well Flashplate and the biotinylated peptides were allowed to bind to the streptavidin surface for at least 1 hour before being washed once with 0.1% Tween20 in a Biotek ELx405 plate washer. The plates were then read in a PerkinElmer TopCount plate reader to measure the quantity of ^3H-labeled peptide bound to the Flashplate surface, measured as disintegrations per minute (dpm) or alternatively, referred to as counts per minute (cpm).
(§3) Where dpm=disintegrations per minute, cmpd=signal in assay well, and min and max are the respective minimum and maximum signal controls.
(§4) Where top and bottom are the normally allowed to float, but may be fixed at 100 or 0 respectively in a 3-parameter fit. The Hill Coefficient normally allowed to float but may also be fixed at 1 in a 3-parameter fit. Y is the % inhibition and X is the compound concentration.

Full-length human PRMT6 = molecular target: T2, Full-length human PRMT6 (Homo sapiens, UniProt Q96LA8); assay: PRMT6 biochemical assay (3H-SAM Flashplate, peptide substrate)
T2 construct: Flag-PRMT6-His was eluted with 200 ug/ml FLAG peptide in the same buffer; made in house; host or cells: HEK 293F cells (BacMam virus, pFastBacMam)
Text: as §1, with “(BSG), sodium butyrate” for “(BSG),”
Substrates. Peptide representative of human histone H4 residues 36-50 was synthesized with an N-terminal linker-affinity tag motif and a C-terminal amide cap by 21st Century Biochemicals.
The amplified gene was subcloned into pFastBacMam (Viva Biotech).
Protein Expression. Recombinant baculovirus were generated according to Bac-to-Bac kit instructions (Life Technologies). […] Infections were carried out at 37° C. for 48 hours, harvested by centrifugation, and stored at −80° C. for purification.
Protein Purification. […] Column was washed with 20 mM imidazole in the same buffer and Flag-PRMT6-His was eluted with 150 mM imidazole. Pooled fractions were dialysed against buffer Ni-A and further purified by anti-flag M2 affinity chromatography. Flag-PRMT6-His was eluted with 200 ug/ml FLAG peptide in the same buffer. Pooled fractions were dialysed in 20 mM Tris, 150 mM NaCl, 10% glycerol and 5 mM β-mercaptoethanol, pH 7.8.
as §2, with “PRMT6” for “PRMT1”, “PRMT6,” for “PRMT1,”, “400” for “300”
as §3, §4

[2] = test system: mono-methyl arginine in RKO cells; assay: RKO methylation assay, In Cell Western for mono-methyl arginine and DNA content; format: cell-based; settings: Homo sapiens; In Cell Western, RKO cells, 72 hours, percent activation of mono-methyl arginine signal; read-out: EC30
Text: RKO adherent cells were purchased from ATCC (American Type Culture Collection), Manassas, Va., USA. DMEM/Glutamax medium, penicillin-streptomycin, heat inactivated fetal bovine serum, 0.05% trypsin and D-PBS were purchased from Life Technologies, Grand Island, N.Y., USA. Odyssey blocking buffer, 800CW goat anti-rabbit IgG (H+L) antibody, and Licor Odyssey infrared scanner were purchased from Licor Biosciences, Lincoln, Nebr., USA. Mono-methyl arginine antibody was purchased from Cell Signaling Technology, Danvers, Mass., USA. Methanol was purchased from VWR, Franklin, Mass., USA. 10% Tween 20 was purchased from KPL, Inc., Gaithersburg, Md., USA. […] was purchased from Biostatus Limited, Leicestershire, UK.
RKO adherent cells were maintained in growth medium (DMEM/Glutamax medium supplemented with 10% v/v heat inactivated fetal bovine serum and 100 units/mL penicillin-streptomycin) and cultured at 37° C. under 5% CO2
Cell Treatment, in Cell Western (ICW) for Detection of Mono-Methyl Arginine and DNA Content. […] Compound (100 nL) from a 96-well source plate was added directly to 384 well cell plate. Plates were incubated at 37° C., 5% CO2 for 72 hours. After three days of incubation, plates were brought to room temperature outside of the incubator for ten minutes and blotted on paper towels to remove cell media. 50 μL of ice cold 100% methanol was added directly to each well and incubated for 30 min at room temperature. After 30 min, plates were transferred to a Biotek EL406 plate washer and washed 2 times with 100 μL per well of wash buffer (1×PBS). Next 60 μL per well of Odyssey blocking buffer (Odyssey Buffer with 0.1% Tween 20 (v/v)) were added to each plate and incubated 1 hour at room temperature. Blocking buffer was removed and 20 μL per well of primary antibody was added (mono-methyl arginine diluted 1:200 in Odyssey buffer with 0.1% Tween 20 (v/v)) and plates were incubated overnight (16 hours) at 4° C. Plates were washed 5 times with 100 μL per well of wash buffer. […] The plates were washed 5 times with 100 μL per well wash buffer then 2 times with 100 μL per well of water. Plates were allowed to dry at room temperature then imaged on the Licor Odyssey machine which measures integrated intensity at 700 nm and 800 nm wavelengths. Both 700 and 800 channels were scanned.
Calculations: First, the ratio for each well was determined by:
Each plate included fourteen control wells of DMSO only treatment (minimum activation) as well as fourteen control wells for maximum activation treated with 20 μM of a reference compound. The average of the ratio values for each control type was calculated and used to determine the percent activation for each test well in the plate. Reference compound was serially diluted three-fold in DMSO for a total of nine test concentrations, beginning at 20 μM. Percent activation was determined and EC30 curves were generated using triplicate wells per concentration of compound.

T1 sequence (Q99873 with tags, fused parts or gaps): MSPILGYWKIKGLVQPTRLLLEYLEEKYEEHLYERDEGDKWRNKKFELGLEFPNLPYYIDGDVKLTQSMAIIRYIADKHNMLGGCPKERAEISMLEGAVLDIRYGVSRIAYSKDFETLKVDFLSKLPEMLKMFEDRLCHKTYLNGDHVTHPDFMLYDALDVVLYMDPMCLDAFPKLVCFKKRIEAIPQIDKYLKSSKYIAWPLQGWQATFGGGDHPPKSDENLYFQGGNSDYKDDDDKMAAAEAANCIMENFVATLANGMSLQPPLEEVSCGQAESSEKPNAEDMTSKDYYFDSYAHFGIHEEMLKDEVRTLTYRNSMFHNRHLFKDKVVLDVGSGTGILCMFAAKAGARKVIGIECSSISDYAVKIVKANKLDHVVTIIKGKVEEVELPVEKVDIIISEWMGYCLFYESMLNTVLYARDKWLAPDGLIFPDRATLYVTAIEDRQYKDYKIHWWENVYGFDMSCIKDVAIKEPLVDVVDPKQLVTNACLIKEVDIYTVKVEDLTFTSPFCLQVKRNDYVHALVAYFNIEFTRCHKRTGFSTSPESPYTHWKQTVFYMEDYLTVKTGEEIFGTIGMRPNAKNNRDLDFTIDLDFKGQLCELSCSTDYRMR
T2 sequence (Q96LA8 with tags, fused parts or gaps): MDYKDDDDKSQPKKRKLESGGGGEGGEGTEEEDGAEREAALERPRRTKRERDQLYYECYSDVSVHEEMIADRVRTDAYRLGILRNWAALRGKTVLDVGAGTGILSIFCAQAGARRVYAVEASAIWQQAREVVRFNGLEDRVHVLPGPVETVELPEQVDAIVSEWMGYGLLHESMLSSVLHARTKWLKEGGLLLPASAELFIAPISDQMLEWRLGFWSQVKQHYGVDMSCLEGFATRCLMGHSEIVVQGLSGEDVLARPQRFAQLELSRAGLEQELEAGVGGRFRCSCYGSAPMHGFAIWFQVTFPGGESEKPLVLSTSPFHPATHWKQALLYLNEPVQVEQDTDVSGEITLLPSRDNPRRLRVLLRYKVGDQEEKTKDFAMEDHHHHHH

Compound | IC50 [1] | IC50 (Full-length human PRMT6) | EC30 [2]
CNCCN(C)Cc1n[nH]cc1-c1ccc(Oc2cccc(OC)c2)cc1 [Compound 239] | < 100 nM | < 100 nM | < 3000 nM
CNCCN(C)Cc1n[nH]cc1-c1ccc(Oc2ccccc2)c(C(=O)NC)c1 [Compound 240] | < 100 nM | < 100 nM | 3010 to 12000 nM
CNCCN(C)Cc1n[nH]cc1-c1ccc(Oc2ccccc2)c(C(=O)N(C)C)c1 [Compound 241] | < 100 nM | < 100 nM | 3010 to 12000 nM
CNCCN(C)Cc1n[nH]cc1-c1cc(C(C)C)cc(C(C)C)c1 [Compound 242] | 101 to 1000 nM | 1010 to 3000 nM | > 12000 nM
CNCCN(C)Cc1cn(Cc2ccncc2)nc1-c1ccc(OC(C)C)cc1 [Compound 245] | < 100 nM | 101 to 1000 nM | < 3000 nM
CN(CCN)Cc1c[nH]nc1-c1ccc(Oc2ccccc2F)cc1 [Compound 259] | < 100 nM | < 100 nM | < 3000 nM
CNCCN(C)Cc1c[nH]nc1-c1cc(OC(C)C)cc(C(C)C)c1 [Compound 260] | < 100 nM | 101 to 1000 nM | 3010 to 12000 nM
CNCCN(C)Cc1c[nH]nc1-c1ccc(Oc2cccc(C#N)c2)cc1 [Compound 261] | < 100 nM | < 100 nM | < 3000 nM
CNCCN(C)Cc1c[nH]nc1-c1ccc(Oc2cccc(C(C)C)c2)cc1 [Compound 262] | < 100 nM | < 100 nM | < 3000 nM
CNCCN(C)Cc1c[nH]nc1-c1ccc(Oc2cccc(C(=O)NC)c2)cc1 [Compound 263] | < 100 nM | < 100 nM | < 3000 nM
CNCCN(C)Cc1c[nH]nc1-c1cc(Cl)c(OC(C)C)c(Cl)c1 [Compound 265, N^1-((3-(3,5-dichloro-4-isopropoxyphenyl)-1H-pyrazol-4-yl)methyl)-N^1,N^2-dimethylethane-1,2-diamine] | < 100 nM | < 100 nM | < 3000 nM
CNCCN(C)Cc1nn(C)cc1-c1ccc(OCCCOC)cc1 [Compound 266] | 101 to 1000 nM | < 100 nM | > 12000 nM
CNCCN(C)Cc1n[nH]cc1-c1ccc(Oc2cccc(C#N)c2)cc1 [Compound 267] | < 100 nM | < 100 nM | < 3000 nM
CNCCN(C)Cc1n[nH]cc1-c1ccc(Oc2cccc(C(=O)NC)c2)cc1 [Compound 268] | < 100 nM | < 100 nM | 3010 to 12000 nM
CNCCN(C)Cc1n[nH]cc1-c1ccc(Oc2cccc(F)c2)cc1 [Compound 270] | < 100 nM | < 100 nM | < 3000 nM
CNCCN(C)Cc1n[nH]cc1-c1cc(CC(C)C)cc(CC(C)C)c1 [Compound 271] | < 100 nM | 101 to 1000 nM | > 12000 nM
CNCCN(C)Cc1n[nH]cc1-c1cc(OC(C)C)cc(C(C)C)c1 [Compound 272] | 101 to 1000 nM | 1010 to 3000 nM | > 12000 nM
CNCCN(C)Cc1n[nH]cc1-c1cc(Cl)c(OC(C)C)c(Cl)c1 [Compound 273] | < 100 nM | < 100 nM | < 3000 nM
CNCCN(C)Cc1c[nH]nc1-c1ccc(Oc2ccccc2C(=O)NC)cc1 [Compound 274] | < 100 nM | < 100 nM | < 3000 nM
CNCCN(C)Cc1n[nH]c(C)c1-c1ccc(OC(C)C)cc1 [Compound 275] | < 100 nM | < 100 nM | < 3000 nM
CNCCN(C)Cc1c(-c2ccc(OCCCOC)cc2)cnn1C [Compound 276] | > 10000 nM | 1010 to 3000 nM | > 12000 nM
CNCCN(C)Cc1n[nH]cc1-c1ccc(Oc2cccc(C(C)C)c2)cc1 [Compound 277] | < 100 nM | < 100 nM | > 12000 nM
CNCCN(C)Cc1n[nH]cc1-c1ccc(Oc2ccccc2F)cc1 [Compound 279, N^1-((4-(4-(2-fluorophenoxy)phenyl)-1H-pyrazol-3-yl)methyl)-N^1,N^2-dimethylethane-1,2-diamine] | < 100 nM | < 100 nM | < 3000 nM
CC(C)Cc1cc(-c2n[nH]cc2CN(C)CCN)ccc1F [Compound 280] | < 100 nM | < 100 nM | < 3000 nM
